Experimental findings from article PMC10537105, “Derivatives Incorporating Acridine, Pyrrole, and Thiazolidine Rings as Promising Antitumor Agents” (Molecules, 2023) are described below.

Data set [1] concerns primary brain endothelial cells. The data set can be described thus: Endothelial cell viability assay (ATP, CellTiter-Glo). In kind it is cell-based, rats. The note with it: primary rat brain endothelial cells. The source says: To comprehensively evaluate the cytotoxic effects of the investigated compounds 6c, 6e, and 8a, 8c, we conducted tests on primary endothelial cells. This additional assessment served multiple purposes in our study. Firstly, it aimed to assess the selectivity of these compounds, particularly in comparison to their effects on both tumor and normal cell lines. […] Secondly, by examining their impact on endothelial cells, we aimed to explore potential off-target effects, as endothelial cells are crucial components of blood vessels and play a pivotal role in angiogenesis—a process intricately linked to tumor growth. Lastly, these tests allowed for a broader safety assessment, beyond the scope of tumor and normal cell lines, providing insights into the compounds’ implications for vascular health and their regulatory role in angiogenesis.
Primary brain endothelial cells were isolated from rats (200–250 g, […]; n = 5 per isolation). Euthanasia was performed by CO2 exposure, followed by brain removal. The brainstem and cerebellum were dissected, and the white matter from the midbrain and choroid plexus was excised under sterile conditions. Cortical tissues were meticulously cleaned of meninges and homogenized on ice in a DMEM-F12 medium (PAA Laboratories GmbH, Cölbe, Germany) with 0.1% bovine serum albumin (BSA, Sigma-Aldrich, St. Louis, MO, USA). The homogenate was centrifuged at 800× g for 10 min at 4 °C. After aspirating the supernatant, the pellet was resuspended in a pre-warmed digestion mix containing 1 mg/mL collagenase/dispase (Roche Diagnostics, Indianapolis, IN, USA) and 10 μg/mL DNase I (Roche Diagnostics, Indianapolis, IN, USA). The homogenates were then incubated with the pre-prepared digestion mix at 37 °C for 30 min with gentle shaking. The preparation was centrifuged at 800× g for 10 min at 4 °C, and the pellets were resuspended in 20% BSA in the medium. The tissues were centrifuged at 1500× g for 15 min at 4 °C to obtain a pellet containing microvessels with a fraction of myelin and BSA on top, which was centrifuged again. The microvessels were pooled and resuspended in a pre-warmed digestion mix and incubated for 15 min at 37 °C. The pellet was then centrifuged at 800× g for 10 min at 4 °C and washed with a serum-containing DMEM-F12 culture medium. […] The endothelial cells were ready to use after 7 days.
The endothelial cell viability was assessed through the quantification of adenosine triphosphate (ATP) released from the cells, utilizing the ATP assay as per the manufacturer’s instructions (The Promega CellTiter-Glo™ Luminescent Cell Viability Assay Kit, Madison, WI, USA). […]
A general note: ATP-based viability assays read luminescence as a measure of living cells.

In data set [2] the test system is HCT-116. The data set can be described thus: MTT assay, HCT-116 cells. Type of data set: cell-based, human. The conditions noted are these: Homo sapiens, HCT-116; MTT, 72 h of incubation; read-out: IC50 values ± SD, HCT-116. The source says: (§1) The impact of acridine spiro derivatives 6–10 (Figure 13) on the metabolic activity of various tumor cell lines HCT-116 (human colorectal carcinoma), Jurkat (human leukemia cells), HeLa (human cervical adenocarcinoma), MDA-MB-231, and MCF-7 (human breast adenocarcinoma), and normal cell lines COS-7 (monkey kidney cells) and BJ-5ta (skin fibroblasts) was investigated using the MTT assay. This assay measures the conversion of yellow 3-(4,5-dimethylthiazol-2-yl)-2,5-diphenyltetrazolium bromide (MTT) to insoluble purple formazan by metabolically active cells. The antiproliferative activities of the tested compounds were determined based on the results from the MTT assay, and the inhibitory concentration values (IC50) are presented in Table 5.
(§2) The human cancer cell lines employed in this study were sourced from reputable institutions, including the American Type Culture Collection (ATCC; Manassas, VA, USA) and the European Collection of Authenticated Cell Cultures (ECACC, Salisbury, UK). Specifically, HeLa (93021013, human cervical adenocarcinoma), HCT116 (CCL-247TM, human colorectal carcinoma), and Jurkat (88042803, human leukemic T-cell lymphoma) were cultured in RPMI 1640 medium (Biosera, Kansas City, MO, USA). In contrast, MCF-7 (HTB-22TM, human breast adenocarcinoma, ER+), MDA-MB-231 (HTB-26TM, human breast adenocarcinoma, ER−), and COS-7 (CRL-1651TM, kidney fibroblasts) were nurtured in high-glucose Dulbecco’s Modified Eagle Medium (DMEM) supplemented with sodium pyruvate (Biosera). Furthermore, BJ-5ta (CRL-4001TM, human dermal fibroblasts) was cultured in a composite medium of high-glucose DMEM and M199 (4:1) (Biosera), supplemented with Hygromycin B (0.01 mg/mL; Merck, Darmstadt, Germany). All culture media were enriched with a 10% fetal bovine serum (FBS; Gibco, Thermo Scientific, Rockford, IL, USA) and an antibiotic/antimycotic solution (Merck) to ensure optimal growth conditions. The cells were meticulously maintained within a humidified environment containing 5% CO2 at 37 °C. Regular screenings for mycoplasma contamination were conducted using Hoechst 33342 staining (Merck), confirming the integrity of the cell lines.
(§3) To assess the antiproliferative impact of the synthesized compounds 6–10, their half-maximal inhibitory concentration (IC50) and the MTT colorimetric assay were employed. MDA-MB-231 and MCF-7 cells were seeded into 96-well microplates (SARSTEDT, Nümbrecht, Germany) at a density of 5 × 10^3 cells per well. After 24 h of cell seeding, various concentrations (100, 50, and 10 µmol/L) of acridine derivatives 6–10 were introduced, alongside cisplatin (utilized as a reference) at concentrations of 5, 10, 20, 50, and 100 µmol/L. Subsequent to 24, 48, and 72 h of treatment, the cells in each well underwent incubation with MTT (5 mg/mL, Sigma-Aldrich Chemie, Steinheim, Germany) for 4 h at 37 °C in the dark. During this period, mitochondrial oxidoreductases metabolized MTT, forming insoluble formazan. Following this, 100 µL of SDS (10% […]) was added to dissolve the formazan crystals, and the cells were incubated for an additional 12 h. Absorbance at 540 nm was measured using the automated Cytation™ 3 Cell Imaging Multi-Mode Reader (Biotek, Winooski, VT, USA). Each test was performed in triplicate, and three independent experiments were conducted to ensure precision and reliability.
A general note: Tetrazolium dyes change colour on reduction, which living cells bring about.

Data set [3] has as its system BJ-5ta. Briefly: MTT assay, BJ-5ta normal fibroblasts. In kind it is cell-based, human. The note with it: Homo sapiens, Fibroblast, 72 h of incubation, normal cell line, read-out: IC50 values ± SD, BJ-5ta.
From the text: as §1, §2, §3

The test system of data set [4] is HeLa. The data set can be described thus: MTT assay, HeLa cells. In kind it is cell-based, human. The note with it: Homo sapiens, HeLa, 72 h of incubation, read-out: IC50 values ± SD, HeLa.
From the text: as §1, §2, §3

Data set [5] has as its system MDA-MB-231. Briefly: MTT assay, MDA-MB-231 cells. Type of data set: cell-based, human. The conditions noted are these: Homo sapiens, MDA-MB-231, 72 h of incubation, read-out: IC50 values ± SD, MDA-MB-231.
From the text: as §1, §2, §3

Data set [6] relates to Jurkat. The data set can be described thus: MTT assay, Jurkat cells. In kind it is cell-based, human. The note with it: Homo sapiens, Jurkat; MTT, 72 h of incubation; read-out: IC50 values ± SD, Jurkat.
From the text: as §1, §2, §3

For data set [7], the system named is COS-7. Briefly: MTT assay, COS-7 normal cells. The note with it: Primates, COS-7, 72 h of incubation, normal cell line, read-out: IC50 values ± SD, COS-7. Type of data set: cell-based, monkey.
From the text: as §1, §2, §3

Data set [8] has as its system MCF-7. The data set can be described thus: MTT assay, MCF-7 cells. The conditions noted are these: Homo sapiens, MCF7, 72 h of incubation, read-out: IC50 values ± SD, MCF-7. Type of data set: cell-based, human.
From the text: as §1, §2, §3

Bounds are passed on as bounds.

Consider `CCOC(=O)/C=C1\S/C(=N\N2C(=O)C(C#N)=CC23c2ccccc2Nc2ccccc23)N(c2ccccc2)C1=O` [8a, Ethyl 2-[(2Z,5Z)-2-({4′-cyano-5′-oxo-1′,5′-dihydro-10H-spiro[acridine-9,2′-pyrrol]-1′-yl}imino)-4-oxo-3-phenyl-1,3-thiazolidin-5-ylidene]acetate], for which the melting point is 256 to 259 °C (dec.). Also, the IC50 in data set [1] was found to be 5 µM. Also, the IC50 in data set [2] was determined as 5.46 ± 0.04 µM. In data set [3], the concentration for half-maximal inhibition (IC50) turned out to be 7.25 ± 0.41 µM. Further, in data set [4], the half-maximal inhibitory concentration (IC50) came out at 5.77 µM. In data set [5], the half-maximal inhibitory concentration (IC50) amounted to 7.85 ± 0.69 µM. In [6], the IC50 stood at 5.67 ± 0.06 µM. Besides, the IC50 in data set [7] amounted to 9.15 ± 0.12 µM. The IC50 in data set [8] was 7.9 ± 0.49 µM.

Regarding `N#CC1=CC2(c3ccccc3Nc3ccccc32)N(NC(=S)Nc2ccc([N+](=O)[O-])cc2)C1=O` [6e, 3-{4′-Cyano-5′-oxo-1′,5′-dihydro-10H-spiro[acridine-9,2′-pyrrol]-1′-yl}-1-(4-nitrophenyl)thiourea], the melting point is 175 to 179 °C (dec.). In [1], this molecule came in with an IC50 of 45 µM. For the same molecule, the concentration for half-maximal inhibition (IC50) in [2] is 19.6 ± 1.07 µM. The IC50 in data set [3] was determined as 71.1 ± 2.62 µM. In [4], the IC50 was 52.1 ± 2.99 µM. Further, in data set [5], the IC50 was 78.8 ± 4.87 µM. Besides, the concentration for half-maximal inhibition (IC50) in data set [6] stood at 7.82 ± 0.31 µM. The concentration for half-maximal inhibition (IC50) in data set [7] was found to be 87.1 ± 5.82 µM. In [8], the concentration for half-maximal inhibition (IC50) is 39.7 ± 0.58 µM.

Take `CC1S/C(=N\N2C(=O)C(C#N)=CC23c2ccccc2Nc2ccccc23)N(c2ccc([N+](=O)[O-])cc2)C1=O` (centres unmarked) [9e, 1′-{[(2Z)-5-Methyl-3-(4-nitrophenyl)-4-oxo-1,3-thiazolidin-2-ylidene]amino}-5′-oxo-1′,5′-dihydro-10H-spiro[acridine-9,2′-pyrrole]-4′-carbonitrile]: the melting point was 170 to 173 °C (dec.). In [2], the IC50 is greater than 100 µM. Besides, the IC50 in [3] is greater than 100 µM. Also, the IC50 in [4] was greater than 100 µM. In addition, the half-maximal inhibitory concentration (IC50) in [5] is greater than 100 µM. For the same molecule, the IC50 in [6] was found to be 34.4 ± 2.13 µM. In addition, in [7], the IC50 is greater than 100 µM. Moreover, in [8], the IC50 was greater than 100 µM.

Turning to `COc1ccc(N2C(=O)CS/C2=N\N2C(=O)C(C#N)=CC23c2ccccc2Nc2ccccc23)cc1` [7b, 1′-{[(2Z)-3-(4-Methoxyphenyl)-4-oxo-1,3-thiazolidin-2-ylidene]amino}-5′-oxo-1′,5′-dihydro-10H-spiro[acridine-9,2′-pyrrole]-4′-carbonitrile], the melting point was 207 to 210 °C (dec.). The IC50 in [2] is greater than 100 µM. Further, the IC50 in [3] is greater than 100 µM. In addition, the IC50 in data set [4] is greater than 100 µM. Moreover, the IC50 in [5] was greater than 100 µM. Further, the IC50 in data set [6] is greater than 100 µM. Moreover, the IC50 in data set [7] is greater than 100 µM. Also, in data set [8], the concentration for half-maximal inhibition (IC50) came out at 30.8 ± 5.22 µM.

Take `N#CC1=CC2(c3ccccc3Nc3ccccc32)N(/N=C2\SCC(=O)N2c2ccc([N+](=O)[O-])cc2)C1=O` [7e, 1′-{[(2Z)-3-(4-Nitrophenyl)-4-oxo-1,3-thiazolidin-2-ylidene]amino}-5′-oxo-1′,5′-dihydro-10H-spiro[acridine-9,2′-pyrrole]-4′-carbonitrile]: the melting point is 244 to 247 °C (dec.). In addition, in data set [2], the IC50 came out at 46.2 ± 2.02 µM. Further, the IC50 in data set [3] was greater than 100 µM. In addition, the IC50 in data set [4] was greater than 100 µM. The 50% inhibitory concentration (IC50) in data set [5] was greater than 100 µM. Moreover, the IC50 in [6] is 35.5 ± 2.31 µM. Moreover, the IC50 in data set [7] was greater than 100 µM. In addition, in data set [8], the concentration for half-maximal inhibition (IC50) is greater than 100 µM.

For `CCCC1S/C(=N\N2C(=O)C(C#N)=CC23c2ccccc2Nc2ccccc23)N(c2ccc(F)cc2)C1=O` (centres unmarked) [10d, 1′-{[(2Z)-3-(4-Fluorophenyl)-4-oxo-5-propyl-1,3-thiazolidin-2-ylidene]amino}-5′-oxo-1′,5′-dihydro-10H-spiro[acridine-9,2′-pyrrole]-4′-carbonitrile], the melting point was 230 to 232 °C (dec.). In addition, the IC50 in data set [2] is greater than 100 µM. In addition, in data set [3], the IC50 was greater than 100 µM. Further, the IC50 in data set [4] is greater than 100 µM. In addition, the 50% inhibitory concentration (IC50) in [5] is greater than 100 µM. In addition, in [6], the 50% inhibitory concentration (IC50) was greater than 100 µM. Besides, the IC50 in [7] was greater than 100 µM. Further, in data set [8], the IC50 is greater than 100 µM.

With `CCOC(=O)/C=C1\S/C(=N\N2C(=O)C(C#N)=CC23c2ccccc2Nc2ccccc23)N(c2cccc(OC)c2)C1=O` [8c, Ethyl 2-[(2Z,5Z)-2-({4′-cyano-5′-oxo-1′,5′-dihydro-10H-spiro[acridine-9,2′-pyrrol]-1′-yl}imino)-3-(3-methoxyphenyl)-4-oxo-1,3-thiazolidin-5-ylidene]acetate], the melting point is 239 to 243 °C (dec.). The IC50 in data set [1] is 20 µM. In [2], the 50% inhibitory concentration (IC50) turned out to be 5.44 ± 0.05 µM. Further, the IC50 in data set [3] is 7.18 ± 0.19 µM. In [4], the 50% inhibitory concentration (IC50) worked out at 5.83 ± 0.03 µM. Moreover, in [5], the half-maximal inhibitory concentration (IC50) worked out at 7.98 ± 0.93 µM. Besides, in [6], the IC50 stood at 5.67 ± 0.03 µM. Besides, the 50% inhibitory concentration (IC50) in [7] amounted to 8.95 ± 0.08 µM. Also, in [8], the IC50 was 7.75 ± 0.41 µM.

By IC50 is commonly meant the midpoint of a concentration-inhibition curve. The term melting point denotes the temperature of the solid-liquid transition.
